# Data reported in patent publication US20250195503A1, “TETRACYCLIC COMPOUND AND USE THEREOF” (SHANGHAI SHIJIANG BIOTECHNOLOGY TECHNOLOGY CO., LTD., priority 2022, published 2025).
# Experiments:
# [1] = system: Daoy cell transfected with virus vector carrying shRNA that could specificly induce the degradation of PPIF mRNA; experiment: Mitochondria membrane potential difference by TMRM in Daoy cell transfected with virus vector carrying PPIF shRNA; type: cell-based, human; details: CsA −, H2O2 +
# [2] = system: Daoy cell transfected with empty virus vector without carrying shRNA; experiment: Mitochondria membrane potential difference by TMRM in Daoy cell transfected with empty virus vector; type: cell-based, human; details: CsA −, H2O2 +
# Daoy cell = experiment: Mitochondria membrane potential difference by TMRM in Daoy cell; type: cell-based, human; details: CsA −, H2O2 +
# Description: The mitochondria permeability transition pore (mPTP) was a non-specific channel on the inner membrane of mitochondria, which could allow small molecules with molecular less than 1.5KD to pass freely, and its activity was affected by peroxides (such as H2O2), pH and calcium ions in mitochondria. […] For cells with active mitochondria permeability transition pore, adding peroxide (such as H2O2) could increase the activity of mitochondria permeability transition pore, resulting in a decrease in mitochondria membrane potential.
# mPTP-inactive Daoy cell = experiment: Inhibitory effect (IC50) on mPTP-inactive Daoy cell (PPIF shRNA), Promega CellTiter-Glo kit; type: cell-based; details: Homo sapiens, Daoy cell transfected with virus vector carrying PPIF shRNA
# mPTP-active Daoy cell = experiment: Inhibitory effect (IC50) on mPTP-active Daoy cell, Promega CellTiter-Glo kit; type: cell-based; details: Homo sapiens, Daoy cell transfected with empty virus vector without PPIF shRNA
# sh-DNMT1 NCI-H82 cell = experiment: Inhibitory effect (IC50) on sh-DNMT1 NCI-H82 cell, Promega CellTiter-Glo kit; type: cell-based; details: Homo sapiens, DNMT1 knocked down NCI-H82 cell
# Con-NCI-H82 cell = experiment: Inhibitory effect (IC50) on Con-NCI-H82 cell, Promega CellTiter-Glo kit; type: cell-based; details: Homo sapiens, NCI-H82 cell transfected with empty virus vector
# ov-NNMT NCI-H82 cell = experiment: Inhibitory effect (IC50) on ov-NNMT NCI-H82 cell, Promega CellTiter-Glo kit; type: cell-based; details: Homo sapiens, NNMT protein overexpressed NCI-H82 cell
SMILES,"Relative TMRM signal intensity (%), mean value [1] [%]","Relative TMRM signal intensity (%), mean value [2] [%]","Relative TMRM signal intensity (%), mean value (Daoy cell) [%]",IC50 (mPTP-inactive Daoy cell) [µM],IC50 (mPTP-active Daoy cell) [µM],IC50 (sh-DNMT1 NCI-H82 cell) [µM],IC50 (Con-NCI-H82 cell) [µM],IC50 (ov-NNMT NCI-H82 cell) [µM]
OO [H2O2],95,79,82,,,,,
COc1ccc2c(c1OC)CN1CCc3cc4c(cc3C1=C2)OCO4 [compound AB31713],,,,12.5,25,14.6,,
COc1ccc2c(c1OC)C(C(Cl)(Cl)Cl)N1CCc3cc4c(cc3C1=C2)OCO4 (stereo not shown) [compound AB31714],,,,12.5,26.7,14.3,2.33,7.04
CCCCC1c2c(ccc(OC)c2OC)C=C2c3cc4c(cc3CCN21)OCO4 (stereo not shown) [compound AB31875],,,,6.25,14.6,12.3,3.27,10.1
C=CCCC1c2c(ccc(OC)c2OC)C=C2c3cc4c(cc3CCN21)OCO4 (stereo not shown) [compound AB31882],,,,9.22,19.3,18.8,5.16,11.6
CCC1c2c(ccc(OC)c2OC)C=C2c3cc4c(cc3CCN21)OCO4 (stereo not shown) [compound AB31883],,,,2.45,5.64,5.98,2.18,5.56
CCCC1c2c(ccc(OC)c2OC)C=C2c3cc4c(cc3CCN21)OCO4 (stereo not shown) [compound AB31884],,,,2.71,5.76,8.64,2.31,6.32
COc1ccc2c(c1OC)C(C(C)C)N1CCc3cc4c(cc3C1=C2)OCO4 (stereo not shown) [compound AB31885],,,,3.17,6.43,5.99,1.12,4.13
COc1ccc2c(c1OC)C(C)N1CCc3cc4c(cc3C1=C2)OCO4 (stereo not shown) [compound AB31886],,,,5.74,14.3,9.66,3.22,8.48
C=CCC1c2c(ccc(OC)c2OC)C=C2c3cc4c(cc3CCN21)OCO4 (stereo not shown) [compound AB31891],,,,3.12,6.22,5.73,2.06,6.55
COc1ccc2c(c1OC)C(C1CCCCC1)N1CCc3cc4c(cc3C1=C2)OCO4 (stereo not shown) [compound AB31893],,,,2.5,5.14,,,
COc1ccc2c(c1OC)C(C1CCCC1)N1CCc3cc4c(cc3C1=C2)OCO4 (stereo not shown) [compound AB31900],,,,2.56,5.37,6.58,,
COc1ccc2c(c1OC)C(C(F)(F)F)N1CCc3cc4c(cc3C1=C2)OCO4 (stereo not shown) [compound AB35403],,,,28.6,60.1,24.2,6.91,16.8
CCCCCCC1c2c(ccc(OC)c2OC)C=C2c3cc4c(cc3CCN21)OCO4 (stereo not shown) [compound AB35435],,,,0.69,1.32,3.65,0.72,2.66
